Results from patent publication US11351185B2, “Use of isovalerylspiramycins as anti-cancer agents to inhibit metastasis” (priority 2020, dated 2022).
Entries after “also recorded” stand apart in the source; their conditions may differ.

Experiments:
[1] = tested on: LN229 and U251 cells; experiment: Cell-cycle analysis by flow cytometry (EdU and DAPI), glioblastoma cells; assay type: cell-based
Method: To assess the cytotoxicity of ISPs I, II and III, five glioblastoma cell lines, T98G, U118, A172, LN229 and U251, were treated with serial doses of each ISP, respectively, for 48 hours. Cell viability of these cell lines were evaluated by CCK8 assay, and the 50% inhibitory concentration (IC50) was calculated (FIG. 2A, B and FIG. 3). […] Cell distribution in each phase of the cell cycle was assessed in LN229 and U251 cells by flow cytometry, followed by EdU and DAPI staining.
For monitoring cell-cycle arrest of ISP I-treated cells, Click-iT EdU Flow Cytometry Assay Kits were used, a product of ThermoFisher Scientific. Cells were co-cultured with EdU at a concentration of 10 μM for 1 hour. After fixation and permeabilization, EdU-positive cells were labeled with Alexa Fluor 647 fluorescein. DAPI also was used for measuring total DNA content to identify differences in cell cycle phases. Data were collected by means of a BD LSRFortessa flow cytometer using FlowJo software. Cells that are positive with EdU and DAPI were in S-Phase of the cell cycle.

[2] = tested on: meningioma cell lines IOMM, JEN, CH-157; experiment: CCK8 cell viability assay, meningioma cell lines; assay type: cell-based; details: 48 hours
Method: (§1) Cell viability was measured by Cell Counting Kit-8 (CCK-8, Dojindo Molecular Technologies, Tokyo, Japan). Cells were seeded in 96-well plates at a density of 3×10^3 cells/well and cultured for 24 hours before treatment with ISP I at different concentration. After treatment for a gradient ISP I concentration from 0 to 20 μg/ml for 48 hours, while control groups were only treated in PBS solution, 10 μl of CCK-8 solution were added to each well and cells were incubated for an additional 2 hours. The absorbance in each well at a wavelength of OD450 was detected by the Synergy H1 microplate reader, a product of BioTek (Winooski, Vt. USA).

[3] = tested on: SELH-deficient 786-O and RCC4 cells; experiment: CCK8 assay in SELH-deficient (CRISPR/CAS9) RCC cells; assay type: cell-based; details: 786-O and RCC4 SELH knock out
Method: as §1

[4] = tested on: NRF2, HMOX1, NQO1; experiment: Real time RT-PCR of NRF2 and downstream genes; assay type: cell-based; details: for NRF2 expression (RT-PCR): 24 hours
Method: NRF2 (NFE2L2) is a transcription factor that regulates redox homeostasis by binding to the regulatory regions of antioxidant response elements (ARE). […] Glioblastoma (LN229 and U251) cells and RCC (786-O and RCC4) cells were treated with ISP I and evaluated for NRF2 expression levels. […] Considering this finding, the inventors evaluated SELH's regulatory role on NRF2 by measuring NRF2 expression in cells that either overexpressed or had silenced SELH expression.
Total RNA was extracted using PureLink RNA Mini Kit, a product of ThermoFisher Scientific (Waltham, Mass. USA), according manufacturer's protocol. First strand cDNA was synthesized with iScript cDNA Synthesis Kit, a product of Bio-Rad (Hercules, Calif. USA). Then the inventors performed real time PCR by SsoAdvanced Universal SYBR Green Supermix kit, a product of Bio-Rad, to quantify the expression levels of genes NRF2, HMOX1, and NQO1. The primer sequences are described in Liu et al., J. Nat'l Cancer Inst. 111: 1033 (2019). Data were analyzed and normalized to 18s rRNA as the reference gene for further statistics.

[5] = tested on: other proteins (antioxidant components); experiment: Surface plasmon resonance (SPR) assay, other antioxidant components; assay type: binding
[6] = tested on: γH2AX; experiment: γH2AX immunofluorescence staining and western blot (DNA damage); assay type: cell-based; details: 6 hours
Method: It is well-established that increased levels of ROS in cells leads to oxidative DNA damage, inducing genomic instability and inhibiting cell cycle progression. Cooke et al., FASEB J. 17: 1195 (2003). Since ISP I downregulates SELH, a key regulator of ROS response elements, the inventors first assessed whether treatment with ISP I augmented DNA damage in vitro.
(§2) Western blotting was performed to detect the protein expression level of SELH, NRF2 and γH2AX regulated by ISP I. The cells were lysed by RIPA buffer from ThermoFisher Scientific, and the concentration was measured using DC Protein Assay, a Bio-Rad product. Equal amounts of protein of each sample were loaded for gel electrophoresis and were transferred to nitrocellulose membrane, blocked and incubated overnight at 4° C. with primary antibodies. Then the membranes were washed with TBST (3 times, 10 min each). Exposure, imaging, and data analysis were done using a KwikQuant Imager system, a product of Kindle Biosciences (Greenwich, Conn. USA). The following antibodies were used: anti-phospho-histone H2A.X (Ser139), anti-NRF2 (Cell Signaling, Danvers, Mass. USA), anti-SELH (Abcam, Cambridge, Mass. USA), anti-GAPDH (Millipore, Temecula, Calif. USA).
For immunofluorescence assay, cells were seeded on a 35-mm confocal dish with glass bottom and were treated with ISP I. […] Then the cells were incubated with secondary antibody conjugated with Alexa Fluor-594 (Invitrogen), followed by staining with DAPI for nuclei. Images were obtained using Zeiss LSM 780 microscopy (Carl Zeiss, Oberkochen Germany).

[7] = molecular target: T1, SELH (Homo sapiens, UniProt Q8IZQ5); experiment: Western blot of SELH protein level in treated cells; assay type: cell-based; set-up: endogenous in cells; host or cells: LN229, 786-O, T98G, U118, U251, RCC4; details: for SELH protein expression, different concentrations: LN229 cells, 24 hours post-treatment
T1 sequence (Q8IZQ5 1-122): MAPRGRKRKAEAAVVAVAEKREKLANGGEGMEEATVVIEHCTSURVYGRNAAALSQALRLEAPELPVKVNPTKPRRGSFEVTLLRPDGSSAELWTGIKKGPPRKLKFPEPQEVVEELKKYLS
Method: A cycloheximide (CHX) chase assay was completed to assess ISP I's effect on SELH protein degradation.
as §2

With `COC1C(O)CC(=O)OC(C)CC=CC=CC(OC2CCC(N(C)C)C(C)O2)C(C)CC(CC=O)C1OC1OC(C)C(OC2CC(C)(O)C(OC(=O)CC(C)C)C(C)O2)C(N(C)C)C1O` (stereo not drawn) [ISP I, 4″-isolvalerylspiramycin I] the “cell distribution in cell-cycle phases” value [1] was “G0/G1 arrest; also recorded: dose-dependent increase in the G0/G1 phase and a decrease in the S phase”, the “cytotoxic effect on meningioma cell lines” value [2] was “demonstrated a cytotoxic effect” and the “sensitivity of SELH-deficient cells vs wild type (CCK8)” value [3] was “resistance to ISP I; also recorded: SELH-deficient cells were resistant to ISP I treatment”. The “expression of NRF2 downstream genes HMOX1 and NQO1” value ([4]; 786-O and RCC4) was “increase in expression of the NRF2 downstream genes HMOX1 and NQO1; also recorded: significant increase in the downstream targets of NRF2 signaling”, the “NRF2 expression (RT-PCR)” value ([4]; 786-O and RCC4, 10 μg/ml) was “increase in NRF2 expression; also recorded: NRF2 expression was significantly upregulated” and the “expression of NRF2 downstream genes HMOX1 and NQO1” value ([4]; LN229 and U251) was “increase of the expression of NRF2 downstream genes HMOX1 and NQO1; also recorded: significant increase in the downstream targets of NRF2 signaling”. For the same compound, the “NRF2 expression (RT-PCR)” value ([4]; LN229 and U251, 10 μg/mL) was “increase in NRF2 expression; also recorded: NRF2 expression was significantly upregulated”, the “binding to other proteins (SPR)” value [5] was “does not bind with the other proteins” and the “γH2AX expression (DNA damage marker)” value ([6]; 786-O and RCC4) was “increase of γH2AX expression”. The “γH2AX expression (DNA damage marker)” value ([6]; LN229 and U251) was “higher quantities of γH2A.X”, the “γH2AX expression (DNA damage marker)” value ([6]; LN229 and U251, listed as ISP 1) was “increase of γH2AX expression” and the “SELH protein levels in RCC cell lines” value ([7]; 786-O and RCC4, 10 μg/ml, 24 hours) was “decreased SELH levels; also recorded: inhibitory effect on SELH expression also was confirmed”. For the same compound, the “SELH protein expression, different concentrations” value [7] was “reduced SELH protein expression in LN229 cells in a dose-dependent manner”, the “SELH protein expression, different concentrations” value ([7]; listed as ISP 1) was “decline, in a dose-dependent manner, of SELH levels” and the “SELH protein levels in glioblastoma cell lines” value ([7]; T98G, U118, LN229, U251, 10 μg/mL, 24 hours) was “decreased SELH levels; also recorded: inhibitory effect on SELH expression also was confirmed”.
